The target in the experiment is TBK1 (Homo sapiens (Human), UniProt Q9UHD2). Description: TBK1 low ATP kinase assay (in vitro assay 1). Type of experiment: biochemical. Conditions: in vitro assay 1, read-out: TBK1 low ATP kinase assay IC50.
Chain of TBK1 (Q9UHD2 whole entry): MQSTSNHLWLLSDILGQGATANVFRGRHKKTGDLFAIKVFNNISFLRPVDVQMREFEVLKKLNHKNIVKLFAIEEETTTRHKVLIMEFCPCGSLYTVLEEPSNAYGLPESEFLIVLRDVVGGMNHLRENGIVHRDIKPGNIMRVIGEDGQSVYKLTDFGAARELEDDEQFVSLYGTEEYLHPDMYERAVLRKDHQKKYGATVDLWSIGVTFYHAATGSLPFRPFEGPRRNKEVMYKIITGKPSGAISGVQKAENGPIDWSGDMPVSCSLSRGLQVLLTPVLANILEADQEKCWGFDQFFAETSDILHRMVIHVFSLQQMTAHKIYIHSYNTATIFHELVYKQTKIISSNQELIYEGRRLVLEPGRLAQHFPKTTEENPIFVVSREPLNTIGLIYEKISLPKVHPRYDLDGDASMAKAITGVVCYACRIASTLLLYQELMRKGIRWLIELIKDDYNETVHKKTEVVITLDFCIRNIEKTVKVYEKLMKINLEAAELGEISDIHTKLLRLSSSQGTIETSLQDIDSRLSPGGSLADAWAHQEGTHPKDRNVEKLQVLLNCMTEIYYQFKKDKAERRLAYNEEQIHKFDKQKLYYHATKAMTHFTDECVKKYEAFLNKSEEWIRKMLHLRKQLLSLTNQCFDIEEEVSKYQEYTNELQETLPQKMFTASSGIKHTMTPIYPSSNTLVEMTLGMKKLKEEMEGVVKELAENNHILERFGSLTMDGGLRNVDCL
As a reminder, the IC50 is the point on the concentration scale where inhibition reaches its midpoint. Regarding `CC(C)Oc1cc(-c2ccc3nc(Nc4cc(CN5CCN(C(=O)C6CC6)CC5)ccn4)[nH]c3c2)ncn1` [Example 160.03, cyclopropyl(4-{[2-({6-[6-(propan-2-yloxy)pyrimidin-4-yl]-1H-benzimidazol-2-yl}amino)pyridin-4-yl]methyl}piperazin-1-yl)methanone], the IC50 stood at 8.5 nM.

Regarding `Clc1ccccc1N1CCN(Cc2ccnc(Nc3nc4ccc(-c5noc(C6CC6)n5)cc4[nH]3)c2)CC1` [Example 22.01, N-(4-{[4-(2-chlorophenyl)piperazin-1-yl]methyl}pyridin-2-yl)-6-(5-cyclopropyl-1,2,4-oxadiazol-3-yl)-1H-benzimidazol-2-amine], the IC50 stood at 481 nM.

Regarding `CN(C)c1cc(-c2ccc3nc(Nc4cc(CN5CCN(C(=O)C6CC6)CC5)ccn4)[nH]c3c2)ncn1` [Example 143.03, cyclopropyl(4-{[2-({6-[6-(dimethylamino)pyrimidin-4-yl]-1H-benzimidazol-2-yl}amino)pyridin-4-yl]methyl}piperazin-1-yl)methanone], the IC50 is 4.8 nM.

Take `O=C(CC(F)(F)F)N1CCN(Cc2ccnc(Nc3nc4ccc(-c5cc(OCC6(C(F)(F)F)CC6)ncn5)cc4[nH]3)c2)CC1` [Example 158.02, 3,3,3-trifluoro-1-{4-[(2-{[6-(6-{[1-(trifluoromethyl)cyclopropyl]methoxy}pyrimidin-4-yl)-1H-benzimidazol-2-yl]amino}pyridin-4-yl)methyl]piperazin-1-yl}propan-1-one]: the IC50 was determined as 21 nM.

As to `Cc1noc(-c2ccc3nc(Nc4cc(CN5CCN(c6cnccn6)CC5)ccn4)[nH]c3c2)n1` [Example 101.13, 6-(3-methyl-1,2,4-oxadiazol-5-yl)-N-(4-{[4-(pyrazin-2-yl)piperazin-1-yl]methyl}pyridin-2-yl)-1H-benzimidazol-2-amine], the IC50 came to 360 nM.

Turning to `COc1c(NCC2CC2)ncnc1-c1ccc2nc(Nc3cc(CN4CCN(C(=O)C5CC5)CC4)ccn3)[nH]c2c1` [Example 109.01.03, cyclopropyl[4-({2-[(6-{6-[(cyclopropylmethyl)amino]-5-methoxypyrimidin-4-yl}-1H-benzimidazol-2-yl)amino]pyridin-4-yl}methyl)piperazin-1-yl]methanone], the IC50 was 8.7 nM.

Consider `COc1cc(-c2ccc3nc(Nc4cc(CN5CCN(C(=O)C6CC6)CC5)ccn4)[nH]c3c2)ncn1` [Example 163.03, cyclopropyl{4-[(2-{[6-(6-methoxypyrimidin-4-yl)-1H-benzimidazol-2-yl]amino}pyridin-4-yl)methyl]piperazin-1-yl}methanone], for which the concentration for half-maximal inhibition (IC50) was 18 nM.

With `CC(c1ccnc(Nc2nc3ccc(-c4cc(N5CC(C(F)(F)F)C5)ncn4)cc3[nH]2)c1)N1CCN(C(=O)[C@@H]2CC2(F)F)CC1` (single isomer, unassigned) [Example 164.05, ((1RS)-2,2-difluorocyclopropyl){4-[(1R or 1S)-1-[2-[(6-{6-[3-(trifluoromethyl)azetidin-1-yl]pyrimidin-4-yl}-1H-benzimidazol-2-yl)amino]pyridin-4-yl}ethyl]piperazin-1-yl}methanone], the IC50 stood at 0.566 nM.

With `CCN(CC)c1cc(-c2ccc3nc(Nc4cc(CN5CCN(C(=O)OC(C)(C)C)CC5)ccn4)[nH]c3c2)ncn1` [Example 155.01, tert-butyl 4-{[2-({6-[6-(diethylamino)pyrimidin-4-yl]-1H-benzimidazol-2-yl}amino)pyridin-4-yl]methyl}piperazine-1-carboxylate], the IC50 is 36 nM.

With `CCOc1cnc(C)cc1-c1ccc2nc(Nc3cc(CN4CCN(C(=O)CC(F)(F)F)CC4)ccn3)[nH]c2c1` [Example 09.01, 1-{4-[(2-{[6-(5-ethoxy-2-methylpyridin-4-yl)-1H-benzimidazol-2-yl]amino}pyridin-4-yl)methyl]piperazin-1-yl}-3,3,3-trifluoropropan-1-one], the IC50 amounted to 251 nM.

In the case of `COc1ncccc1-c1ccc2nc(Nc3cc(CN4CCN(C(=O)C5CC5)CC4)ccn3)[nH]c2c1` [Example 15.03, cyclopropyl{4-[(2-{[6-(2-methoxypyridin-3-yl)-1H-benzimidazol-2-yl]amino}pyridin-4-yl)methyl]piperazin-1-yl}methanone], the IC50 was found to be 3810 nM.

For `CC(c1ccnc(Nc2nc3ccc(-c4cc(N5CC(C(F)(F)F)C5)ncn4)cc3[nH]2)c1)N1CCN(C(=O)CC(F)(F)F)CC1` (single isomer, unassigned) [Example 164.02, 3,3,3-trifluoro-1-{4-[(1R or 1S)-1-{2-[(6-{6-[3-(trifluoromethyl)azetidin-1-yl]pyrimidin-4-yl}-1H-benzimidazol-2-yl)amino]pyridin-4-yl}ethyl]piperazin-1-yl}propan-1-one], the IC50 stood at 0.943 nM.

Consider `CC(c1ccnc(Nc2nc3ccc(-c4cnn(CC5CC5)c4)c(F)c3[nH]2)c1)N1CCN(C(=O)OC(C)(C)C)CC1` (single isomer, unassigned) [Example 121.01, tert-butyl 4-{(1R or 1S)-1-[2-({6-[1-(cyclopropylmethyl)-1H-pyrazol-4-yl]-7-fluoro-1H-benzimidazol-2-yl}amino)pyridin-4-yl]ethyl}piperazine-1-carboxylate], for which the IC50 came to 11 nM.

Take `CC(c1ccnc(Nc2nc3ccc(-c4cc(N5CC(C(F)(F)F)C5)ncn4)cc3[nH]2)c1)N1CCN(C(=O)OC(C)(C)C)CC1` (single isomer, unassigned) [Example 164.01, tert-butyl 4-[(1R or 1S)-1-{2-[(6-{6-[3-(trifluoromethyl)azetidin-1-yl]pyrimidin-4-yl}-1H-benzimidazol-2-yl)amino]pyridin-4-yl}ethyl]piperazine-1-carboxylate]: the IC50 was 5.48 nM.

As for `O=C(C1CC1)N1CCN(Cc2ccnc(Nc3nc4ccc(-c5ccnc(C(F)(F)F)n5)cc4[nH]3)c2)CC1` [Example 27.01, cyclopropyl(4-{[2-({6-[2-(trifluoromethyl)pyrimidin-4-yl]-1H-benzimidazol-2-yl}amino)pyridin-4-yl]methyl}piperazin-1-yl)methanone], the IC50 was 164 nM.

For `O=C(CC(F)(F)F)N1CCN(Cc2ccnc(Nc3nc4ccc(-c5ncnc(NC6CC6)c5F)cc4[nH]3)c2)CC1` [Example 192.02, 1-(4-{[2-({6-[6-(cyclopropylamino)-5-fluoropyrimidin-4-yl]-1H-benzimidazol-2-yl}amino)pyridin-4-yl]methyl}piperazin-1-yl)-3,3,3-trifluoropropan-1-one], the IC50 turned out to be 18.3 nM.

For the molecule `Cc1cc(-c2ccc3nc(Nc4cc(CN5CCN(C(=O)C6CC6)CC5)ccn4)[nH]c3c2)c(F)cn1` [Example 131.03, cyclopropyl{4-[(2-{[6-(5-fluoro-2-methylpyridin-4-yl)-1H-benzimidazol-2-yl]amino}pyridin-4-yl)methyl]piperazin-1-yl}methanone], the IC50 is 32 nM.

Turning to `O=C(C1CC1)N1CCN(Cc2ccnc(Nc3nc4ccc(-c5ncc[nH]5)cc4[nH]3)c2)CC1` [Example 43.01, cyclopropyl{4-[(2-{[6-(1H-imidazol-2-yl)-1H-benzimidazol-2-yl]amino}pyridin-4-yl)methyl]piperazin-1-yl}methanone], the IC50 came to 262 nM.

For the molecule `Cc1cc(-c2ccc3nc(Nc4cc(C(C)N5CCN(C(=O)CC6CC6)CC5)ccn4)[nH]c3c2)ncn1` (racemic) [Example 30.02.04, (rac)-2-cyclopropyl-1-{4-[1-(2-{[6-(6-methylpyrimidin-4-yl)-1H-benzimidazol-2-yl]amino}pyridin-4-yl)ethyl]piperazin-1-yl}ethanone], the IC50 is 9.35 nM.

As to `COc1cc(-c2ccc3nc(Nc4cc(CN5CCN(C(=O)C6CC6)CC5)ccn4)[nH]c3c2)c(F)cn1` [Example 03.01, cyclopropyl{4-[(2-{[6-(5-fluoro-2-methoxypyridin-4-yl)-1H-benzimidazol-2-yl]amino}pyridin-4-yl)methyl]piperazin-1-yl}methanone], the IC50 came to 198 nM.

For the molecule `Cc1ccnc(N2CCN(Cc3ccnc(Nc4nc5ccc(-c6nc(C)no6)cc5[nH]4)c3)CC2)c1` [Example 101.30, 6-(3-methyl-1,2,4-oxadiazol-5-yl)-N-(4-{[4-(4-methylpyridin-2-yl)piperazin-1-yl]methyl}pyridin-2-yl)-1H-benzimidazol-2-amine], the IC50 amounted to 560 nM.

As to `CN(C)c1ncnc(-c2ccc3nc(Nc4cc(CN5CCN(C(=O)C6CC6)CC5)ccn4)[nH]c3c2)c1Cl` [Example 179.03, (4-{[2-({6-[5-chloro-6-(dimethylamino)pyrimidin-4-yl]-1H-benzimidazol-2-yl}amino)pyridin-4-yl]methyl}piperazin-1-yl)(cyclopropyl)methanone], the IC50 was 1260 nM.

`Cc1cc(-c2ccc3nc(Nc4cc(C(C)N5CCN(C(=O)C6CC6)CC5)ccn4)[nH]c3c2Cl)ncn1` (centres unmarked) [Example 98.03, {4-[(1R or IS)-1-(2-{[7-chloro-6-(6-methylpyrimidin-4-yl)-1H-benzimidazol-2-yl]amino}pyridin-4-yl)ethyl]piperazin-1-yl}(cyclopropyl)methanone]: the IC50 was 76 nM.

On to `COCc1cc(-c2ccc3nc(Nc4cc(CN5CCN(C(=O)CC(F)(F)F)CC5)ccn4)[nH]c3c2)ncn1` [Example 79.01, 3,3,3-trifluoro-1-(4-{[2-({6-[6-(methoxymethyl)pyrimidin-4-yl]-1H-benzimidazol-2-yl}amino)pyridin-4-yl]methyl}piperazin-1-yl)propan-1-one], for which the IC50 worked out at 8.3 nM.

Turning to `CC(c1ccnc(Nc2nc3ccc(-c4cnn(CC5CCC5)c4)c(Cl)c3[nH]2)c1)N1CCN(C(=O)CC(F)(F)F)CC1` (single isomer, unassigned) [Example 75.02, 1-(4-{(1R or 1S)-1-[2-({7-chloro-6-[1-(cyclobutylmethyl)-1H-pyrazol-4-yl]-1H-benzimidazol-2-yl}amino)pyridin-4-yl]ethyl}piperazin-1-yl)-3,3,3-trifluoropropan-1-one], the 50% inhibitory concentration (IC50) came out at 1.4 nM.

Consider `Cc1noc(-c2ccc3nc(Nc4cc(C(C)N5CCN(C(=O)C6CC6)CC5)ccn4)[nH]c3c2)n1` (single isomer, unassigned) [Example 16.06.03.A, cyclopropyl{4-[(1R or 1S)-1-(2-{[6-(3-methyl-1,2,4-oxadiazol-5-yl)-1H-benzimidazol-2-yl]amino}pyridin-4-yl)ethyl]piperazin-1-yl}methanone], for which the IC50 came to 13.8 nM.
